row,Structure (SMILES),melting point [°C]
1,"CC(C)n1nc(-c2nc(C3=CCCN(C)C3)c(N)nc2-c2ccccc2)ccc1=O [Example 92, 6-[5-amino-6-(1-methyl-1,2,5,6-tetrahydro-3-pyridyl)-3-phenyl-2-pyrazinyl]-2-isopropyl-3(2H)-pyridazinone]",191 to 193
2,"CC(C)n1nc(-c2nc(-c3cnn(C)c3)c(N)nc2-c2ccccc2)ccc1=O [Example 93, 6-[5-amino-6-(1-methyl-1H-pyrazol-4-yl)-3-phenyl-2-pyrazinyl]-2-isopropyl-3(2H)-pyridazinone]",201 to 203
3,"CC(=O)c1nc(-c2ccc(=O)n(C(C)C)n2)c(-c2ccccc2)nc1N [Example 94, 6-(6-acetyl-5-amino-3-phenyl-2-pyrazinyl)-2-isopropyl-3(2H)-pyridazinone]",234 to 236.5
4,"CCOC(=O)C=Cc1nc(-c2ccc(=O)n(C(C)C)n2)c(-c2ccccc2)nc1N [Example 95, ethyl 3-[3-amino-6-(1-isopropyl-6-oxo-1,6-dihydro-3-pyridazinyl)-5-phenyl-2-pyrazinyl]acrylate]",233 to 236
5,"CC(C)n1nc(-c2nc(NCc3ccccc3)c(N)nc2-c2ccccc2)ccc1=O [Example 96, 6-[5-amino-6-(benzylamino)-3-phenyl-2-pyrazinyl]-2-isopropyl-3(2H)-pyridazinone]",181 to 183.5
6,"CC(C)n1nc(-c2nc(N(C)C)c(N)nc2-c2ccccc2)ccc1=O [Example 96, 6-[5-amino-6-(dimethylamino)-3-phenyl-2-pyrazinyl]-2-isopropyl-3(2H)-pyridazinone]",174 to 176
7,"COc1ccc(CNc2nc(-c3ccc(=O)n(C(C)C)n3)c(-c3ccccc3)nc2N)cc1 [Example 97, 6-{5-amino-6-[(4-methoxybenzyl)amino]-3-phenyl-2-pyrazinyl}-2-isopropyl-3(2H)-pyridazinone]",188.5 to 191.5
8,"CC(C)n1nc(-c2nc(NCc3ccccn3)c(N)nc2-c2ccccc2)ccc1=O [Example 98, 6-{5-amino-3-phenyl-6-[(2-pyridylmethyl)amino]-2-pyrazinyl}-2-isopropyl-3(2H)-pyridazinone]",192 to 194
9,"CCCCNc1nc(-c2ccc(=O)n(C(C)C)n2)c(-c2ccccc2)nc1N [Example 99, 6-[5-amino-6-(butylamino)-3-phenyl-2-pyrazinyl]-2-isopropyl-3(2H)-pyridazinone]",200 to 202
10,"CCCCNc1nc(-c2ccc(=O)n(C)n2)c(-c2ccccc2)nc1N [Example 100, 6-[5-amino-6-(butylamino)-3-phenyl-2-pyrazinyl]-2-methyl-3(2H)-pyridazinone]",253 to 255
11,"C=CCNc1nc(-c2ccc(=O)n(C(C)C)n2)c(-c2ccccc2)nc1N [Example 101, 6-[6-(allylamino)-5-amino-3-phenyl-2-pyrazinyl]-2-isopropyl-3(2H)-pyridazinone]",208 to 210
12,"COCCNc1nc(-c2ccc(=O)n(C(C)C)n2)c(-c2ccccc2)nc1N [Example 102, 6-{5-amino-6-[(2-methoxyethyl)amino]-3-phenyl-2-pyrazinyl}-2-isopropyl-3(2H)-pyridazinone]",208 to 209.5
13,"CC(C)n1nc(-c2nc(NCCN3CCCCC3)c(N)nc2-c2ccccc2)ccc1=O [Example 103, 6-(5-amino-3-phenyl-6-{[2-(1-piperidinyl)ethyl]amino}-2-pyrazinyl)-2-isopropyl-3(2H)-pyridazinone]",204.5 to 207
14,"CC(C)n1nc(-c2nc(NCCN3CCOCC3)c(N)nc2-c2ccccc2)ccc1=O [Example 104, 6-(5-amino-6-{[2-(4-morpholinyl)ethyl]amino}-3-phenyl-2-pyrazinyl)-2-isopropyl-3(2H)-pyridazinone]",230 to 232.5
15,"CC(C)n1nc(-c2nc(NCC3CCCCC3)c(N)nc2-c2ccccc2)ccc1=O [Example 105, 6-{5-amino-6-[(cyclohexylmethyl)amino]-3-phenyl-2-pyrazinyl}-2-isopropyl-3(2H)-pyridazinone]",219 to 221
16,"CC(C)n1nc(-c2nc(NCCc3ccccn3)c(N)nc2-c2ccccc2)ccc1=O [Example 106, 6-(5-amino-3-phenyl-6-{[2-(2-pyridyl)ethyl]amino}-2-pyrazinyl)-2-isopropyl-3(2H)-pyridazinone]",204 to 206
17,"CC(C)n1nc(-c2nc(NC3CCN(Cc4ccccc4)CC3)c(N)nc2-c2ccccc2)ccc1=O [Example 107, 6-{5-amino-6-[(1-benzyl-4-piperidinyl)amino]-3-phenyl-2-pyrazinyl}-2-isopropyl-3(2H)-pyridazinone]",214 to 216.5
18,"CC(C)n1nc(-c2nc(N3CCCCC3)c(N)nc2-c2ccccc2)ccc1=O [Example 108, 6-[5-amino-3-phenyl-6-(1-piperidinyl)-2-pyrazinyl]-2-isopropyl-3(2H)-pyridazinone]",183 to 185
19,"CC(C)n1nc(-c2nc(N3CCC(N(C)C)C3)c(N)nc2-c2ccccc2)ccc1=O (stereo not shown) [Example 109, 6-{5-amino-6-[3-(dimethylamino)-1-pyrrolidinyl]-3-phenyl-2-pyrazinyl}-2-isopropyl-3(2H)-pyridazinone]",150 to 152

row,Structure (SMILES),melting point [°C]
1,"COC1CCN(c2nc(-c3ccc(=O)n(C(C)C)n3)c(-c3ccccc3)nc2N)CC1 [Example 110, 6-[5-amino-6-(4-methoxy-1-piperidinyl)-3-phenyl-2-pyrazinyl]-2-isopropyl-3(2H)-pyridazinone]",179 to 181
2,"CC(C)n1nc(-c2nc(N3CCC(NS(C)(=O)=O)CC3)c(N)nc2-c2ccccc2)ccc1=O [Example 111, N-{1-[3-amino-6-(1-isopropyl-6-oxo-1,6-dihydro-3-pyridazinyl)-5-phenyl-2-pyrazinyl]-4-piperidinyl}methanesulfonamide]",220 to 222
3,"CC(C)n1nc(-c2nc(N3CCNCC3)c(N)nc2-c2ccccc2)ccc1=O [Example 112, 6-[5-amino-3-phenyl-6-(1-piperazinyl)-2-pyrazinyl]-2-isopropyl-3(2H)-pyridazinone]",157 to 159
4,"CC(C)n1nc(-c2nc(N3CCN(C)CC3)c(N)nc2-c2ccccc2)ccc1=O [Example 113, 6-[5-amino-6-(4-methyl-1-piperazinyl)-3-phenyl-2-pyrazinyl]-2-isopropyl-3(2H)-pyridazinone]",155 to 157
5,"CC(C)n1nc(-c2nc(N3CCN(Cc4ccccn4)CC3)c(N)nc2-c2ccccc2)ccc1=O [Example 114, 6-{5-amino-3-phenyl-6-[4-(2-pyridylmethyl)-1-piperazinyl]-2-pyrazinyl}-2-isopropyl-3(2H)-pyridazinone]",88 to 91
6,"CC(C)n1nc(-c2nc(N3CCN(c4ccccc4)CC3)c(N)nc2-c2ccccc2)ccc1=O [Example 115, 6-[5-amino-3-phenyl-6-(4-phenyl-1-piperazinyl)-2-pyrazinyl]-2-isopropyl-3(2H)-pyridazinone]",193 to 195
7,"COc1ccc(N2CCN(c3nc(-c4ccc(=O)n(C(C)C)n4)c(-c4ccccc4)nc3N)CC2)cc1 [Example 116, 6-{5-amino-6-[4-(4-methoxyphenyl)-1-piperazinyl]-3-phenyl-2-pyrazinyl}-2-isopropyl-3(2H)-pyridazinone]",194 to 196
8,"CC(=O)N1CCN(c2nc(-c3ccc(=O)n(C(C)C)n3)c(-c3ccccc3)nc2N)CC1 [Example 117, 6-[6-(4-acetyl-1-piperazinyl)-5-amino-3-phenyl-2-pyrazinyl]-2-isopropyl-3(2H)-pyridazinone]",221 to 225
9,"CC(C)n1nc(-c2nc(N3CCN4CCCC4C3)c(N)nc2-c2ccccc2)ccc1=O (stereo not shown) [Example 118, 6-[5-amino-6-(hexahydropyrrolo[1,2-a]pyrazin-2(1H)-yl)-3-phenyl-2-pyrazinyl]-2-isopropyl-3(2H)-pyridazinone]",205 to 207.5
10,"CC(C)n1nc(-c2nc(N3CC4CCC(C3)O4)c(N)nc2-c2ccccc2)ccc1=O [Example 119, 6-[5-amino-6-(8-oxa-3-azabicyclo[3.2.1]oct-3-yl)-3-phenyl-2-pyrazinyl]-2-isopropyl-3(2H)-pyridazinone]",235 to 238
11,"COCCNc1nc(-c2ccc(=O)n(C)n2)c(-c2ccccc2)nc1N [Example 120, 6-{5-amino-6-[(2-methoxyethyl)amino]-3-phenyl-2-pyrazinyl}-2-methyl-3(2H)-pyridazinone]",231 to 232.5
12,"Cn1nc(-c2nc(NCCN3CCCCC3)c(N)nc2-c2ccccc2)ccc1=O [Example 121, 6-(5-amino-3-phenyl-6-{[2-(1-piperidinyl)ethyl]amino}-2-pyrazinyl)-2-methyl-3(2H)-pyridazinone]",155 to 157
13,"Cn1nc(-c2nc(NCCN3CCOCC3)c(N)nc2-c2ccccc2)ccc1=O [Example 122, 6-(5-amino-6-{[2-(4-morpholinyl)ethyl]amino}-3-phenyl-2-pyrazinyl)-2-methyl-3(2H)-pyridazinone]",226 to 229
14,"Cn1nc(-c2nc(NCCNc3ccccc3)c(N)nc2-c2ccccc2)ccc1=O [Example 123, 6-{5-amino-6-[(2-anilinoethyl)amino]-3-phenyl-2-pyrazinyl}-2-methyl-3(2H)-pyridazinone]",181 to 183
15,"Cn1nc(-c2nc(NCc3ccco3)c(N)nc2-c2ccccc2)ccc1=O [Example 124, 6-{5-amino-6-[(2-furylmethyl)amino]-3-phenyl-2-pyrazinyl}-2-methyl-3(2H)-pyridazinone]",249 to 252
16,"Cn1nc(-c2nc(NCCc3ccccc3)c(N)nc2-c2ccccc2)ccc1=O [Example 125, 6-{5-amino-3-phenyl-6-[(2-phenylethyl)amino]-2-pyrazinyl}-2-methyl-3(2H)-pyridazinone]",232 to 234
17,"Cn1nc(-c2nc(NCCCc3ccccc3)c(N)nc2-c2ccccc2)ccc1=O [Example 126, 6-{5-amino-3-phenyl-6-[(3-phenylpropyl)amino]-2-pyrazinyl}-2-methyl-3(2H)-pyridazinone]",196 to 197.5
18,"Cn1nc(-c2nc(NCCc3ccccn3)c(N)nc2-c2ccccc2)ccc1=O [Example 127, 6-(5-amino-3-phenyl-6-{[2-(2-pyridyl)ethyl]amino}-2-pyrazinyl)-2-methyl-3(2H)-pyridazinone]",224 to 227

# From US7265120B2, “Pyrazine derivatives and pharmaceutical use thereof” (Astellas Pharma Inc., priority 2004, dated 2007)
